Source: patent US20220073910A1, “A Cross-Linking Approach to Map Small Molecule-RNA Binding Sites in Cells” (priority 2019, published 2022)
Starred links: 1 amine or outer side, 2 acyl side, 3 side chain; linkers in the order of their positions; H or OH if unused. Non-standard residues stand in square brackets, D forms with d. Residues, ends and D or L forms follow the SMILES beside them. *: point of attachment. Biotinyl(3aR,4R,6aS) = O=C1N[C@@H]2[C@@H](CS[C@@H]2CCCCC(=O)*)N1; N(2-Aminoethyl)Gly = O=C(CN(CCN[*:3])[*:1])[*:2]; Chlorambucil = O=C(CCCc1ccc(N(CCCl)CCCl)cc1)*; Gly(N-propargyl) = C#CCNCC(=O)O; NPrGly = CCCNCC(=O)O

What was measured:
[1] = test system: pri-miR-96 (Drosha processing); assay: RT-qPCR of mature miR-96 and pri-miR-96 levels in MDA-MB-231 TNBC cells; type: cell-based; details: MDA-MB-231 cells, 50 nM
Description: (§1) A—Effects of compounds 1 and 2 (50 nM) on mature miR-96 and pri-miR-96 levels. B—Effects of compounds 1 and 2 (50 nM) on FOXO1 protein expression. C— Profiling of miRNAs predicted to target FOXO1 mRNA by TargetScan in compound 2-treated MDA-MB-231 cells. D—Volcano plot profiling the effect of compound 2 on all miRNAs that are expressed in MDA-MB-231 cells (blue circles are miRNAs predicted to target FOXO1 mRNA by TargetScan). E—Effects of compounds 1, 2, and 3 on Caspase 3/7 activity, indicative of apoptosis, in MDA-MB-231 TNBC cells. F—Effects of compounds 1, 2, and 3 on Caspase 3/7 activity, indicative of apoptosis, in MCF-10A normal breast epithelial cells.

[2] = test system: MDA-MB-231 TNBC cells; assay: Caspase 3/7 activity (apoptosis) in MDA-MB-231 TNBC cells; type: cell-based; details: MDA-MB-231 cells
Description: as §1
(§2) We next studied the ability of 1 and 2 to trigger apoptosis, i.e., reverse phenotype, in MDA-MB-231 by measuring Caspase activity. […] Compound 3 had no effect on Caspase activity, as expected. […] Thus, the covalent compounds show relative selectivity for cancerous over healthy breast cells.

[3] = test system: pri-miR-96; details: in vitro, cited from earlier work; for pulldown of pri-miR-96 adducts with streptavidin beads: radioactively labeled pri-miR-96 RNA
[4] = test system: FOXO1 protein; assay: FOXO1 protein expression in MDA-MB-231 cells; type: cell-based; details: 50 nM
Description: as §1
(§3) Since miR-96 suppresses apoptosis in cancer cells by repressing the translation of Forkhead box 01 (FOXO1) transcription factor,^15 the effects of 1, 2, and 3 on FOXO1 protein levels were measured in MDA-MB-231 cells. […] To validate that the increase in FOXO1 levels was mediated by inhibition of miR-96, we studied the effects of 1 and 2 on all 15 miRNAs predicted to target the FOXO1 3′ untranslated region (UTR) by TargetScan (FIG. 3C). […] To further probe 2's selectivity for pri-miR-96, we performed an unbiased profiling experiment on 373 miRNAs expressed in MDA-MB-231 TNBC cells (based on Qiagen miRNA Human miRbase profiler HC).

[5] = test system: miRNAs predicted to target FOXO1 mRNA; assay: Profiling of 15 miRNAs predicted by TargetScan to target FOXO1 3' UTR; type: cell-based; details: MDA-MB-231 cells
Description: as §1, §3

[6] = test system: MCF-10A cells; assay: Caspase 3/7 activity (apoptosis) in MCF-10A normal breast epithelial cells; type: cell-based; details: healthy breast epithelial MCF-10A cells
Description: as §1, §2

[7] = test system: pri-miR-96; details: in cells, cited from earlier work
[8] = test system: 373 miRNAs expressed in MDA-MB-231 TNBC cells; assay: Unbiased profiling of 373 miRNAs expressed in MDA-MB-231 TNBC cells; type: cell-based; details: Qiagen miRNA Human miRbase profiler HC
Description: as §1, §3

[9] = test system: pri-miR-96; assay: Chem-CLIP-Map-Seq binding site mapping within pri-miR-96 in MDA-MB-231 TNBC cells; type: cell-based; details: MDA-MB-231 cells, 1000 nM
Excerpt: A—Scheme of amplification approach to identify small molecule binding site in pri-miR-96. B— In cellulis mapping of the binding site for compound 2 within pri-miR-96 in MDA-MB-231 TNBC cells. Percentages indicate the number of sequences observed terminating at the respective nucleotide adjacent to the percentage.
Given the enrichment of pri-miR-96 in the pulled down fraction and 2's pro-apoptotic properties, we mapped 2's binding site within pri-miR-96 in cells. We defined 2's cellular binding site within pri-miR-96. […] After reverse transcription, ssDNA adaptors were ligated to the cDNA, followed by which was cloned into NEB's pminiT 2.0 vector and sequenced. Mirroring the predicted and validated (via nuclease mapping^14) binding site, 2's binding site was localized to nucleotides that are proximal to pri-miR-96's Drosha site (FIG. 4B). In particular, the most occupied binding site observed is a C residue four nucleotides upstream of the UU internal loop bound by 1 (54%; highlighted in red in FIG. 4). Two other reactions sites were observed: (i) a G residue in the GG internal loop that binds 1 (14%); and (ii) a U residue 13 nucleotides upstream of the UU internal loop that is part of the Drosha processing site (24%). To support our cellular mapping experiments, we modeled 2 bound to pri-miR-96 (FIG. 4B). Indeed, the distance between 2's cross-linking module and the most reacted nucleotides match precisely.

Compound | mature miR-96 levels [1] | Caspase activity indicative of apoptosis [2] | pulldown of pri-miR-96 adducts with streptavidin beads [3] | increase in pri-miR-96 abundance [1] | FOXO1 protein expression [4] | effect on all 15 miRNAs predicted to target the FOXO1 3' UTR [5] | Caspase activity indicative of apoptosis [6] | competition of pri-miR-96 pulldown by 2 (C-Chem-CLIP) ([3]; constant 2 (1000 nM), increasing amounts of 1) | competition of pri-miR-96 pulldown (cellular C-Chem-CLIP) ([7]; increasing concentration of 1) | selectivity profiling on 373 miRNAs (volcano plot) [8] | sequences terminating at reaction site: C residue four nucleotides upstream of the UU internal loop [9] | sequences terminating at reaction site: G residue in the GG internal loop [9] | sequences terminating at reaction site: U residue 13 nucleotides upstream of the UU internal loop (Drosha processing site) [9] | enrichment of pri-miRNA-96 in the pulled down fraction ([7]; compared to sample prior to incubation with streptavidin beads, RT-qPCR)
C#CCN(CC(=O)N(CCNC(=O)CCCC[C@H]1SC[C@H]2NC(=O)N[C@H]21)CC(N)=O)C(=O)CN(CCC)C(=O)CN(CCNC(=O)CCCc1ccc(N(CCCl)CCCl)cc1)C(C)=O [compound 3] (Ac-[N(2-Aminoethyl)Gly](Chlorambucil)[NPrGly][Gly(N-propargyl)][N(2-Aminoethyl)Gly](Biotinyl(3aR,4R,6aS))-NH2) | No effect | no effect | no pulldown |  |  |  |  |  |  |  |  |  |  | 
CCCN(CC(=O)N(CCC)CC(=O)N(CC(N)=O)Cc1cn(CCCNC(=O)CCCOc2c(C(C)(C)C)cc(-c3nc4cc(N5CCN(C)CC5)ccc4[nH]3)cc2C(C)(C)C)nn1)C(=O)CCCOc1cccc(-c2nc3ccc(-c4nc5cc(N6CCN(C)CC6)ccc5[nH]4)cc3[nH]2)c1 [compound 1, Targaprimir-96] | reduced | increased Caspase activity |  | ca. 1.5 fold | enhanced the expression of FOXO1 protein | Only miR-96 was inhibited significantly | neither 1 nor 2 had any effect | 1-dependent decrease in the amount of RNA pulled down by 2 | decreased as a function of the concentration of 1 |  |  |  |  | 
CCCN(CC(=O)N(CC(=O)N(CCNC(=O)CCCC[C@H]1SC[C@H]2NC(=O)N[C@H]21)CC(N)=O)Cc1cn(CCCNC(=O)CCCOc2c(C(C)(C)C)cc(-c3nc4cc(N5CCN(C)CC5)ccc4[nH]3)cc2C(C)(C)C)nn1)C(=O)CN(CCNC(=O)CCCc1ccc(N(CCCl)CCCl)cc1)C(=O)CCCOc1cccc(-c2nc3ccc(-c4nc5cc(N6CCN(C)CC6)ccc5[nH]4)cc3[nH]2)c1 [compound 2] | reduced to a similar extent as the parent compound 1 | increased Caspase activity | Specific engagement | ca. 1.5 fold | enhanced the expression of FOXO1 protein | Only miR-96 was inhibited significantly | neither 1 nor 2 had any effect |  |  | miR-96 was the most affected | 54% | 14% | 24% | 5 fold
